Consider 1 compound from PMC8658016, “Identification of New Compounds with Anticonvulsant and Antinociceptive Properties in a Group of 3-substituted (2,5-dioxo-pyrrolidin-1-yl)(phenyl)-Acetamides” (International Journal of Molecular Sciences, 2021).

Experiment [1] relates to mice. Nature of the experiment: Timed ivPTZ seizure threshold test. Type of experiment: in vivo, mouse. The source says: The timed ivPTZ test was employed to evaluate the acute effect of compound 14 on the seizure thresholds for (1) the first myoclonic twitch, (2) generalized clonic seizure with the loss of the righting reflex, and (3) forelimb tonus. The experimental procedure has been described in detail elsewhere.
In this study, we used adult male Swiss albino mice (Kołacz, Laboratory Animals Breeding, Warszawa, Poland) license no. 106/2019 (Local Ethical Committee in Lublin). In studies assessing the acute effect of compound 14 on neuromuscular strength, body temperature, and seizure threshold, compound 14 was suspended in a 1% solution of Tween 80 and administered i.p., 30 min before the tests.
The timed ivPTZ test was employed to evaluate the acute effect of compound 14 on the seizure thresholds for (1) the first myoclonic twitch, (2) generalized clonic seizure with loss of righting reflex, and (3) forelimb tonus. The experimental procedure was described in detail elsewhere. The changes in temperature were recorded using an electronic thermometer (ThermoWorks, Alpine, UT, USA). Mice were gently restrained and a rectal probe was inserted to a depth of ~2 cm into the rectum.
Figure 2 Acute effect of compound 14 on the threshold for the first myoclonic twitch (panel (A)), generalized clonus (panel (B)), and forelimb tonus (panel (C)) in the ivPTZ seizure threshold test in mice. Compound 14 was administered i.p. 30 min before the seizure test. Control animals received vehicle only. Each experimental group consisted of 9–11 animals. Each bar represents the mean (mg/kg PTZ) + S.E.M. * p < 0.05; ** p < 0.01 vs. the control group (one-way ANOVA, followed by Dunnett’s post hoc test, GraphPad Prism 8.0.1).

In the next experiment the target is T1, TRPV1 (VR1) (h) (Homo sapiens, UniProt Q8NER1).
T1 construct: Cerep Laboratories / Eurofins Panlabs (contract assay)
Nature of the experiment: TRPV1 (VR1) functional assay, antagonist effect. Type of experiment: cell-based. The settings on record: HEK293, human recombinant HEK-293 cells, read-out: % Inhibition of Control Agonist Response, TRPV1 (VR1) (h) (antagonist effect).

Experiment [2] relates to TTX-sensitive Na+ channel. Nature of the experiment: Radioligand binding, TTX-sensitive Na+ channel. The note with it: rat cerebral cortex.
The next experiment deals with rats. Nature of the experiment: Carrageenan-induced mechanical hyperalgesia. Type of experiment: in vivo, rat. The settings on record: 80 mg/kg. The source says:
To test the anti-inflammatory activity and the potential to attenuate inflammatory pain, we tested compound 14 in the model of carrageenan-induced aseptic inflammation. In this model, the subplantar injection of carrageenan induced an edema, mechanical, and thermal hyperalgesia. […] In our opinion, the most surprising and interesting was the long-lasting anti-edematous effect. It may result from the pharmacokinetic properties of compound 14, but also from its unique mechanism. Since inflammation is one of the critical components of neuropathy, the anti-inflammatory activity of compound 14 may be a valuable and distinctive property from classical ASDs used to treat neuropathic pain [33]. […] The pain threshold reached 87.3%, 90.9%, and 89.7% of its initial value 3, 6, and 24 h after carrageenan injection, respectively. […] The initial latency for compound 14-treated animals was 8.95 ± 0.4 s. The administration of compound 14 changed the values to 127.0%, 102.0%, 79.8%, 83.8%, and 164.4% of the initial value 1, 2, 3, 6-, and 24-h following carrageenan injection, respectively.
The experiments were conducted on adult male Albino Swiss mice (CD-1, 18–25 g) and male Wistar rats (Krf:(WI) WU), 180–250 g) as described previously. The minimum number of animals used needed to obtain definite and normally distributed results with the utilized test. Behavioral measures were scored by trained observers, which were blind to experimental conditions. The following devices were used in the experiments: Analgesy Meter (37215, Ugo Basile), Plantar Test Apparatus (EFV5, Commat Ltd., Turkey), Plethysmometer (Plethysmometer 7140, Ugo Basile), Electronic von Frey unit (BIOSEB, France). […]
Figure 8 Effect of compound 14 on carrageenan-induced oedema (A), mechanical hyperalgesia (B), and thermal hyperalgesia (C), developed after subplantar injection of 1% carrageenan in rats. Data are expressed as means ± S.E.M. for 6 animals; 0—the initial value considered as the paw volume (A) or nociceptive reaction (B,C) before carrageenan administration. […]

In experiment [3] the test system is mice. Nature of the experiment: Maximal electroshock seizure (MES) test. Type of experiment: in vivo, mouse. The settings on record: mice i.p.
Experiment [4] concerns mice. Nature of the experiment: Formalin test (tonic pain). Type of experiment: in vivo. The note with it: Mus musculus, ip, mice i.p. How it is done: The formalin test is a commonly used model of pain also useful in screening the analgesic activity of novel compounds. A subcutaneous formalin injection results in a biphasic nociceptive response; a phase one (5 min) followed by a quiescent period (10 min) and then phase two (15 min). C-fibers’ initial and direct stimulation in phase one led to peripheral inflammation accompanied by ongoing peripheral nerve activity and central sensitization during phase two. Moreover, a formalin injection induces persistent changes similar to those observed in nerve injury and subsequent neuropathic pain [27].
The experiments were conducted on adult male Albino Swiss mice (CD-1, 18–25 g) and male Wistar rats (Krf:(WI) WU), 180–250 g) as described previously. The minimum number of animals used needed to obtain definite and normally distributed results with the utilized test. Behavioral measures were scored by trained observers, which were blind to experimental conditions. […]
Data were presented as means ± standard error of the mean (S.E.M). […] Statistically significant differences between groups were calculated using one-way analysis of variance (ANOVA) and the post hoc Dunnett’s multiple comparison test or two-way analysis of variance (ANOVA) and the post hoc Tukey’s comparison when appropriate. […]

[5] abbreviates: 30 mg/kg i.p., 30 min before test.

One may read the inhibition as the drop in the measured response relative to a control, in per cent. The term ED50 denotes the midpoint of the dose-response relation.

T1 sequence (Q8NER1 whole entry): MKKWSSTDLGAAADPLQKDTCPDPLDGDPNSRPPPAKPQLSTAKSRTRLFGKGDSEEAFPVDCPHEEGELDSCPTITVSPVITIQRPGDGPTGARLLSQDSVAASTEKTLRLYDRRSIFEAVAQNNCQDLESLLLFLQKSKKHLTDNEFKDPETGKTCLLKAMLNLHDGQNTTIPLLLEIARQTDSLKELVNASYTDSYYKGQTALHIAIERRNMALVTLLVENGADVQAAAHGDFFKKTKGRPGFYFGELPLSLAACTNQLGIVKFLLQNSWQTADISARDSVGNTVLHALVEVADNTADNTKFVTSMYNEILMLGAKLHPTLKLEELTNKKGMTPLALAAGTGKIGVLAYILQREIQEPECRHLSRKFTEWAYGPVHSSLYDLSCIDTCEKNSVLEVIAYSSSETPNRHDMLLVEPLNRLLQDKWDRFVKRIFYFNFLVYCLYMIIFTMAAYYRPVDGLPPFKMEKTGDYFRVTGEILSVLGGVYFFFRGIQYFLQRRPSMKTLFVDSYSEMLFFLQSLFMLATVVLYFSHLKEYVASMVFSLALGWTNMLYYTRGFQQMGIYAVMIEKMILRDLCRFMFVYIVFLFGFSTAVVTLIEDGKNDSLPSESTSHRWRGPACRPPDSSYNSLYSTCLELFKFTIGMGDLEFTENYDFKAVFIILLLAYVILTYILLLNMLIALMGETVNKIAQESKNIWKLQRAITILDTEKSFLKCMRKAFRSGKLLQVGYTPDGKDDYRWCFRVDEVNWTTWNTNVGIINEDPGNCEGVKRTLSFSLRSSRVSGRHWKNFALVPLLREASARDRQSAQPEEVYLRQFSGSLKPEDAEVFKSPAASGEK

As for `CN(C)C1CC(=O)N(C(C(=O)N2CCN(c3cccc(C(F)(F)F)c3)CC2)c2ccccc2)C1=O.Cl` (centres unmarked) [Compound 14, 3-(Dimethylamino)-1-(2-oxo-1-phenyl-2-(4-(3-(trifluoromethyl)phenyl)-piperazin-1-yl)ethyl)pyrrolidine-2,5-dione hydrochloride], in the experiment on mice [1] (setting [5]), the “effect on threshold for generalized clonus (ivPTZ)” value was “did not significantly affect”. In addition, the “effect on threshold for the first myoclonic twitch (ivPTZ)” value in the experiment with mice [1] (setting [5]) is listed as “did not significantly affect”; with mice [1] (60 mg/kg i.p., 30 min before test, p < 0.05) it was “slightly increased”. The “effect on threshold for generalized clonic seizure (ivPTZ)” value in the experiment on mice [1] (60 mg/kg i.p., 30 min before test, p < 0.01) was “slightly increased”. Further, the “effect on threshold for forelimb tonic extension (ivPTZ)” value with mice [1] (30 and 60 mg/kg i.p.) was “No statistically significant changes”. For the same compound, the inhibition at 10 µM at TRPV1 (VR1) (h) (10 µM) worked out at 17.3%. In addition, the inhibition at 50 µM at TRPV1 (VR1) (h) (50 µM) is 88.8%. Moreover, the “% Inhibition of Control-Specific Binding, TTX-sensitive Na+ channel” value in experiment [2] (10 µM) turned out to be 31.0%; in experiment [2] (50 µM), 90.3%. The “withdrawal threshold, % of the initial reaction (mechanical hyperalgesia)” value in the experiment on rats (3 h after carrageenan) stood at 113.3%; in the experiment on rats (6 h after carrageenan), 110.1%; with rats (24 h after carrageenan), 111.4%. Further, the ED50 in the experiment with mice [3] (Mus musculus, ip, 95% confidence interval in parentheses) was 49.6 mg/kg; in the experiment on mice [4] (0–5 min after formalin, read-out: ED50 formalin test, phase I), 85.1 mg/kg; with mice [4] (15–30 min after formalin, read-out: ED50 formalin test, phase II), 56.1 mg/kg. Also, the “MES screening: number of mice protected / number of mice tested” value with mice [3] (100 mg/kg, 0.5 h) is listed as 4/4. In addition, the “protection in the MES test” value with mice [3] (100 mg/kg, 0.5 h) was determined as 100%.
